Measurements from patent publication US20150065472A1, “INTRAUTERINE APPLICATION OF 18-METHYL-15SS,16SS-METHYLENE-19-NOR-20-SPIROX-4-EN-3-ONE SYSTEMS, INTRAUTERINE SYSTEMS CONTAINING 18-METHYL-15SS,16SS-METHYLENE-19-NOR-20-SPIROX-4-EN-3-ONE, AS WELL AS THE USE THEREOF IN CONTRACEPTION AND GYNAECOLOGICAL THERAPY” (BAYER PHARMA AKTIENGESELLSCHAFT, priority 2012, published 2015).

Tests used:
[1] = system: uterus of ovary-resected rats; experiment: Uterine weight gain after implantation of progestin-containing IUS (rod) in ovary-resected rats; format: in vivo, rat; conditions: ovary-resected E2-treated rats, IUS (rod) in right uterine horn, FIG. 1/4
Protocol: (§1) The local uterine action of the progestin compared to systemic side effects (dissociation) was investigated on the basis of studies using rats. The uterus of ovary-resected rats responds to implantation of progestin-containing IUS (rods) with decidualization and weight gain. The local progestin effects were also determined on the basis of changes in gene expression.
(§2) Ovary-resected female rats were treated with estradiol (E2) for three days (0.2 μg/day/animal, subcutaneous dosing). On day 4, an IUS (rod) was implanted into the right uterine horn of each animal. The left uterine horn remained untreated for internal comparison. Administration of E2 was continued with a daily dose of 0.1 μg/animal to ensure responsiveness of the uterus (maintaining progesterone-receptor expression) to progestins. Blood was taken for LH level measurements on days 4, 10 and 17.

[2] = In-vitro break-down (liver) for humans; format: in vitro ADME; conditions: human liver in vitro
[3] = In-vitro metabolic studies (liver); format: in vitro ADME; conditions: all in-vitro metabolic studies (liver)
[4] = target: T1, human androgen receptor (hAR) (Homo sapiens, UniProt P10275); experiment: hAR transactivation in PC3 cells stably transfected with hAR and MTV-luc reporter gene; format: cell-based; conditions: MTV-luc reporter
T1 construct: expressed in transfected cells; host or cells: PC3 (human prostate carcinoma) cells, stably transfected with hAR and MTV-luc reporter
T1 sequence (P10275 1-920): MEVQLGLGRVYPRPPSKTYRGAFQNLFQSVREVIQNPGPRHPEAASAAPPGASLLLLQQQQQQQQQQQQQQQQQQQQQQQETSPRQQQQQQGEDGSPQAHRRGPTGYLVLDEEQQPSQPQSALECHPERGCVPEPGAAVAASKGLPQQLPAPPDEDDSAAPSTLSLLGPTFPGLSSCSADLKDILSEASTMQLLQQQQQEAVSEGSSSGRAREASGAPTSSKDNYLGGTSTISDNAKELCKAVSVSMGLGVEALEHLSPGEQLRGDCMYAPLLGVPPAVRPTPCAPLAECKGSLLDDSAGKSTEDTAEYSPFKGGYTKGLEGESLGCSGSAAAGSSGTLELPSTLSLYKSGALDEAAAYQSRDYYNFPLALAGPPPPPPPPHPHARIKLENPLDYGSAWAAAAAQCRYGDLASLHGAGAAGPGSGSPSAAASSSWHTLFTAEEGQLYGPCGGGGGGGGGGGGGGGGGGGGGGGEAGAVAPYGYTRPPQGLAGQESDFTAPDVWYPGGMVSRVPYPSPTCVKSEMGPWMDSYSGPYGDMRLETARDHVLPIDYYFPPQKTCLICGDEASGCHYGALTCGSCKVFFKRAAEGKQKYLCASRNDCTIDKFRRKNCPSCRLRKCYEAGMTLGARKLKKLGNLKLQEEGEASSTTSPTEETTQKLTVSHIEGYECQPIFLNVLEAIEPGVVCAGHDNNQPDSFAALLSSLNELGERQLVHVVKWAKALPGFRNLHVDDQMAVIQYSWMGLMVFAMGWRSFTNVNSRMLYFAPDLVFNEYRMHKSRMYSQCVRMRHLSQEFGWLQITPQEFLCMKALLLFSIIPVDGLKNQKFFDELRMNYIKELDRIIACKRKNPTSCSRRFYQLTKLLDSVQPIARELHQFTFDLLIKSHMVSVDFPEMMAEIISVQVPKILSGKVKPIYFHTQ
Description: The action on the human androgen receptor (hAR) was studied by means of transactivation analyses. For this, different concentrations of the test substances were to cells with stable expression of the human androgen receptor, and activation of the androgen receptor can be detected via a reporter gene.
For transactivation studies, PC3 (human prostate carcinoma) cells which have been stably transfected with hAR and the MTV-luc reporter gene were used. The culture medium used was RPM! medium (without L-glutamine; without Phenol Red) #E15-49 PAA L-glutamine 200 mM #25030-024 Gibco BRL 100 U/100 μg/ml penicillin/streptomycin Gibco # 15140-122, with 10% foetal calf serum (FCS). The cells were cultured at 37° C. and 5% CO2. The test medium corresponded to the culture medium, except that 10% FCS was replaced with 5% activated carbon-treated FCS (CCS). Cells were seeded in wells of a 96 well plate (“CulturPlate” from Packard #6005180) with 2×10^4 cells/well/200 μl of test medium. The cells were incubated with different concentrations of the test substances, and 80 μl of substrate were measured using the “steadylite HTS Reporter Gene Assay System” from Perkin Elmer.

[5] = system: serum LH level of ovary-resected rats; experiment: Serum luteinizing hormone (LH) level in ovary-resected rats carrying IUS (rod); format: in vivo, rat; conditions: FIG. 2/4
Protocol: Serum levels of luteinizing hormone (LH) are used for detecting systemic effects of the locally administered progestin. Basal serum-LH levels of ovary-resected rats are elevated compared to the levels of intact control animals. Undesired systemic efficacy of the uterine-administered progestin can be detected by a decrease in the LH level.
as §2

[6] = Break-down in vivo in animal species; conditions: all animal species studied in vivo
[7] = system: IGFBP-1 gene expression; experiment: Gene expression analysis in rat uterine tissue after IUS (rod) administration; format: in vivo; conditions: rat uterus, FIG. 3/4
Protocol: as §1
as §2, with “17. […]” for “17.”
Gene expression analysis was carried out with from 50 ng to 200 ng of cDNA per reaction on an SDS7900HT Real.time PCR system (Applied Biosystems, Carlsbad, USA) using TaqMan probes (Applied Biosystems; IGFBP-1 Rn00565713_m1, Cyp26a1 Rn00590308_m1, PPIA Rn00690933_m1) and the Fast Blue qPCR MasterMix Plus (Eurogentec, Liège, Belgium; #RT-QP2X-03+FB). For relative quantification, cyclophilin A (PPIA) was used as an endogenous control. Relative expression levels were calculated according to the comparative delta delta CT method.

Row | Compound | local efficacy by way of weight gain in the IUS-carrying uterine horn [1] | break-down rates in vitro (liver) for humans [2] | break-down rate in in-vitro metabolic studies (liver) [3] | EC50 [4] | LH decrease (systemic side effect) ([5]; compound B release range tested 1-45 μg/animal and day) | break-down rate in vivo [6] | LH decrease (systemic side effect) ([5]; 10 μg/animal and day dose of compound A) | LH decrease (systemic side effect) ([5]; compound A release range tested 0.6-10 μg per animal and day (except the 10 μg dose)) | rate of release from the IUS at which IGFBP-1 gene expression is induced, lower than with levonorgestrel [7]
1 | CC[C@]12CCC3C4CCC(=O)C=C4[C@H]4C[C@H]4C3C1[C@@H]1C[C@@H]1[C@@]21CCCO1 (stereo partly drawn) [compound B, 18-methyl-6α,7α,15β,16β-dimethylene-19-nor-20-spirox-4-en-3-one] | dose-dependent local efficacy | very rapid | very fast | 56 nM | no LH decrease | very fast | – | – | –
2 | CC[C@]12CCC3C4CCC(=O)C=C4CCC3C1[C@@H]1C[C@@H]1[C@@]21CCCO1 (stereo partly drawn) [compound A, 18-methyl-15β,16β-methylene-19-nor-20-spirox-4-en-3-one] | dose-dependent local efficacy | very rapid | very fast | 6.9 nM | – | very fast | exception | no LH decrease | approx. 7 ×
